Assay results from patent publication US7572765B2, “Conformationally constrained parathyroid hormone (PTH) analogs” (The General Hospital Corporation, priority 2001, dated 2009).
Square brackets hold non-standard residues; d marks the D form. Peptide text beside a SMILES is read from it. hArg = N=C(N)NCCCC[C@H](N)C(=O)O; Aib = CC(C)(N)C(=O)O

Experiments:
[1] = target: T1, P1R-delNt, truncated human P1R deleted for residues (24-181) (Homo sapiens, UniProt Q03431); test: Competition binding in COS-7 cells expressing hP1R-delNt; settings: for Binding IC50 / IC50: COS-7 cells, hP1R-delNT, tracer 125I-[Aib^1,3,M]PTH(1-21), N.B. = no inhibition of tracer binding
T1 construct: expressed in transfected cells; host or cells: COS-7 (transient, FuGENE 6)
T1 sequence (Q03431 with tags, fused parts or gaps limits assumed): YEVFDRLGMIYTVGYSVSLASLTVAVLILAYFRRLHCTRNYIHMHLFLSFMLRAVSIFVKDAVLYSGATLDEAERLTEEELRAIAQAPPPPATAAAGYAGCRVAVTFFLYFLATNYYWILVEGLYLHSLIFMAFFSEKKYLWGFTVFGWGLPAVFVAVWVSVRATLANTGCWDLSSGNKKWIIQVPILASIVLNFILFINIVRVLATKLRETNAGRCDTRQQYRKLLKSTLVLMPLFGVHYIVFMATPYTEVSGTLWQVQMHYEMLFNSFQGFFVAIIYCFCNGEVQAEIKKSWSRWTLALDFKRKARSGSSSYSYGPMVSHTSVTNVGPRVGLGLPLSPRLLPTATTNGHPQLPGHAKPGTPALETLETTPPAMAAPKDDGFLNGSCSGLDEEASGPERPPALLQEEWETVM

[2] = target: T2, wild-type human P1R (hP1R-WT) (Homo sapiens, UniProt Q03431); test: Competition binding in COS-7 cells expressing hP1R-WT
T2 construct: expressed in transfected cells; host or cells: COS-7 (transient, FuGENE 6)
T2 sequence (Q03431 27-593): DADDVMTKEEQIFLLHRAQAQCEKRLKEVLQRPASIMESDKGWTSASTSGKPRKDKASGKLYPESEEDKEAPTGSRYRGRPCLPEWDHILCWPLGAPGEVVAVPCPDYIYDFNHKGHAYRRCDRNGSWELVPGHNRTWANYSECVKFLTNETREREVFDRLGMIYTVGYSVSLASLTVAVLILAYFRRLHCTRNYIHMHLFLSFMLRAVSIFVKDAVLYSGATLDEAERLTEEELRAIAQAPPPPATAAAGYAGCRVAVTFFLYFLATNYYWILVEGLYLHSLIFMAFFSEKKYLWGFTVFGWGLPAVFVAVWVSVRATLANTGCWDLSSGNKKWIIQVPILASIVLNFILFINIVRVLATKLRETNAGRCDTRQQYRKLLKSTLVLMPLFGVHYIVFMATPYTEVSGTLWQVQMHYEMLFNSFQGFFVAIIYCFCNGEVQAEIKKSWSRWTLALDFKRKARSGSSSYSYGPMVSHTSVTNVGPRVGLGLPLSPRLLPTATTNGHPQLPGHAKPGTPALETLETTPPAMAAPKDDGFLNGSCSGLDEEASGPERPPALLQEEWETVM
Description: Cell Culture. The cell line HKRK-B28 (Takasu, H., et al., J. Bone Miner. Res. 14:11-20 (1999)) was derived from the porcine kidney cell line, LLC-PK1 by stable transfection with plasmid DNA encoding the human P1R and expresses ˜280,000 receptors per cell. These cells, as well as COS-7 cells and SaOS-2-B10 cells, were cultured at […] in T-75 flasks ([…]) in Dulbecco's modified Eagle's medium (DMEM) supplemented with fetal bovine serum (10%), penicillin G (20 units/ml), streptomycin sulfate (20 μg/ml) and amphotericin B (0.05 μg/ml) in a humidified atmosphere containing 5% CO2. Stock solutions of EGTA/trypsin and antibiotics were from GIBCO; fetal bovine serum was from Hyclone Laboratories (Logan, Utah). COS-7 cells sub-cultured in 24-well plates were transfected with plasmid DNA (200 ng per well) encoding the wild-type human P1R or truncated human P1R deleted for residues (24-181) (Shimizu, M., et al., J. Biol. Chem. 275:21836-21843 (2000)) that was purified by cesium chloride/ethidium bromide density gradient centrifugation, and FuGENE 6 transfection reagent (Roche Indianapolis Ind.) according to the manufacturer's recommended procedure. All cells, in 24-well plates, were treated with fresh media and shifted to 33° C. for 12 to 24 h prior to assay.
Competition Binding. Binding reactions were performed with HKRK-B28 cells or in COS-7 cells in 24-well plates. The cells were rinsed with 0.5 mL of binding buffer, and then treated successively with 100 μL binding buffer, 100 μL of binding buffer containing various amounts of unlabeled competitor ligand, and 100 μL of binding buffer containing ca. 100,000 cpm of ^125I-[M]PTH(1-21) or ^125I-[Aib^1,3,M]PTH(1-21)} (ca. 26 fmol; final volume=300 μL). Incubations were 4 to 6 h at 4° C., at which time near equilibrium conditions were attained. Cells were then placed on ice, the binding medium was removed, and the monolayer was rinsed three times with 0.5 mL of cold binding buffer. The cells were subsequently lysed with 0.5 mL […] and counted for radioactivity. For each tracer and in each experiment, the non-specific binding was determined as the radioactivity that bound in the presence of the same unlabeled peptide at a concentration of 1 μM, and was ˜1% of total radioactivity added for each tracer. The maximum specific binding (B0) was the total radioactivity bound in the absence of competing ligand, corrected for nonspecific binding, and for each tracer, ranged from 8% to 20% of the total radioactivity added. Nonlinear regression was used to calculate binding IC50 values (see below). Scatchard transformations of homologous competition binding data derived from studies with 26 fmol of ^125I-[Aib^1,3,M]PTH(1-21) were employed for estimations of apparent equilibrium dissociation constant (kDapps) and total number of ligand binding sites (Bmax), assuming a single class of binding sites and equal affinities of the iodinated and non iodinated ligand.
Data Calculation. Calculations were performed using Microsoft® Excel. Nonlinear regression analyses of binding and cAMP dose-response data were performed using the four-parameter equation: yp=Min+[(Max−Min)/(1+(IC50/x)^slope)]. […] Differences between paired data sets were statistically evaluated using a one-tailed Student's t-test, assuming unequal variances for the two sets. […]

[3] = COS-7 cells, hP1R-WT, tracer 125I-[Aib^1,3,M]PTH(1-21), N.B. = no inhibition of tracer binding

Molecule	Binding IC50 [1]	Binding IC50 [2, 3]	IC50 [1] [µM]	other results
CCCC[C@H](NC(=O)[C@H](CCCNC(=N)N)NC(=O)[C@H](CCC(=O)O)NC(=O)[C@@H](NC(=O)[C@H](CO)NC(=O)[C@H](C)NC(=O)[C@H](CC(C)C)NC(=O)[C@H](Cc1c[nH]cn1)NC(=O)[C@H](CCCCN)NC(=O)CNC(=O)[C@H](CC(C)C)NC(=O)[C@H](CC(N)=O)NC(=O)[C@H](Cc1c[nH]cn1)NC(=O)[C@H](CCCC)NC(=O)[C@H](CC(C)C)NC(=O)[C@H](CCC(N)=O)NC(=O)[C@@H](NC(=O)[C@H](CCC(=O)O)NC(=O)[C@H](CO)NC(=O)[C@@H](NC(=O)[C@H](C)N)C(C)C)[C@@H](C)CC)C(C)C)C(=O)N[C@@H](CCC(N)=O)C(=O)N[C@@H](Cc1c[nH]c2ccccc12)C(=O)N[C@@H](CC(C)C)C(=O)N[C@@H](CCCNC(=N)N)C(=O)N[C@@H](CCCCN)C(=O)N[C@@H](CCCCN)C(=O)N[C@@H](CC(C)C)C(=O)N[C@@H](CCC(N)=O)C(=O)N[C@@H](CC(=O)O)C(=O)N[C@H](C(=O)N[C@@H](Cc1c[nH]cn1)C(=O)N[C@@H](CC(N)=O)C(=O)N[C@@H](Cc1ccc(O)cc1)C(N)=O)C(C)C [PTH(1-34), [Nle^8,21, Tyr^34]PTH(1-34)amide, reference compound]	N.B.	–	–	–
CC[C@H](C)[C@H](NC(=O)[C@H](CCC(=O)O)NC(=O)C(C)(C)NC(=O)[C@@H](NC(=O)C(C)(C)N)C(C)C)C(=O)N[C@@H](CCC(N)=O)C(=O)N[C@@H](CC(C)C)C(=O)N[C@@H](CCSC)C(=O)N[C@@H](Cc1c[nH]cn1)C(=O)N[C@@H](CCC(N)=O)C(N)=O [[Aib^1,3,M]PTH(1-10), [Aib^1,3,Gln^10]PTH(1-10)] (H-[Aib]V[Aib]EIQLMHQ-NH2)	N.B.	N.B.	–	–
CC[C@H](C)[C@H](NC(=O)[C@H](CCC(=O)O)NC(=O)C(C)(C)NC(=O)[C@@H](NC(=O)C(C)(C)N)C(C)C)C(=O)N[C@@H](CCC(N)=O)C(=O)N[C@@H](CC(C)C)C(=O)N[C@@H](CCSC)C(=O)N[C@@H](Cc1c[nH]cn1)C(=O)N[C@@H](CCC(N)=O)C(=O)N[C@@H](CCCCNC(=N)N)C(N)=O [[Aib^1,3,M]PTH(1-11), AibValAibGluIleGlnLeuMetHisGlnHar] (H-[Aib]V[Aib]EIQLMHQ[hArg]-NH2)	–	–	13	IC50 [2, 3]: 16 µM
CC[C@H](C)[C@H](NC(=O)[C@H](CCC(=O)O)NC(=O)C(C)(C)NC(=O)[C@@H](NC(=O)C(C)(C)N)C(C)C)C(=O)N[C@@H](CCC(N)=O)C(=O)N[C@@H](CC(C)C)C(=O)N[C@@H](CCSC)C(=O)N[C@@H](Cc1c[nH]cn1)C(=O)N[C@@H](CCC(N)=O)C(=O)N[C@@H](CCCCNC(=N)N)C(=O)N[C@@H](C)C(=O)N[C@@H](CCCCN)C(=O)N[C@@H](Cc1c[nH]c2ccccc12)C(N)=O [[Aib^1,3,M]PTH(1-14), AibValAibGluIleGlnLeuMetHisGlnHarAlaLysTrp] (H-[Aib]V[Aib]EIQLMHQ[hArg]AKW-NH2)	effectively inhibited the binding	–	~1.5	binding affinity, fold stronger than [M]PTH(1-14) ([2]; P1R-WT): ~10 fold; binding affinity, fold stronger than [M]PTH(1-14) ([1]; P1R-delNt): ~10 fold; difference in affinity between [Aib^1,3,M]PTH(1-14) and [Aib^1,3,M]PTH(1-21) ([1]; P1R-delNt): 50 fold
H-AVSEIQLMHNLGKH-NH2 [PTH(1-14), reference compound]	N.B.	N.B.	–	Binding IC50 ([1]; listed as native PTH(1-14)): failed to inhibit tracer binding
